Source: patent US12642270B2, “Substituted thiophene carboxamides, thiophene carboxylic acids and derivatives thereof” (Bayer Aktiengesellschaft, priority 2019, dated 2026)

Test: Log P by HPLC on reversed phase columns (EEC directive 79/831 Annex V.A8)
Type: physicochemical
Conditions: method [a]
In short: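 Reversed-phase HPLC per EEC 79/831 Annex V.A8, LC-UV with 10→95% acetonitrile linear gradient; eluent [a] 0.1% formic acid (acidic), [b] 0.001 M ammonium acetate (neutral), [c] 0.1% phosphoric acid (acidic). Calibrated with C3–C16 straight-chain alkan-2-ones, linear interpolation of retention times; multiple values joined by "+".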

| SMILES | LogP |
| --- | --- |
| CCOC(=O)CNC(=O)c1sc(Cl)c(Br)c1F [1.0634] | 2.88^[a] |
| COC(=O)CNC(=O)c1sc(Cl)c(Br)c1F [1.0635] | 2.49^[a] |
| NC(=O)CNC(=O)c1sc(Br)c(Br)c1Cl [1.0638] | 1.98^[a] |
| CCOC(=O)C(Cc1ccccc1)NC(=O)c1sc(Cl)c(Br)c1F (stereo not drawn) [1.0640] | 4.50^[a] |
| COC(=O)C1(NC(=O)c2sc(Cl)c(Br)c2F)CCC1 [1.0641] | 3.29^[a] |
| CCCOC(=O)C1(NC(=O)c2sc(Cl)c(Br)c2F)CC1 [1.0643] | 3.52^[a] |
| O=C(NC1(C(=O)OC2CCC2)CC1)c1sc(Cl)c(Br)c1F [1.0644] | 3.69^[a] |
| CCOC(=O)CNC(=O)c1sc(Br)c(C(F)F)c1Br [1.0646] | 2.92^[a] |
| CCOC(=O)C1(NC(=O)c2sc(Br)c(C(F)F)c2Br)CC1 [1.0648] | 3.05^[a] |
| COC(=O)CNC(=O)c1sc(Cl)c(C#N)c1Br [1.0654] | 2.21^[a] |
| CCOC(=O)C1(NC(=O)c2sc(Cl)c(C#N)c2Br)CC1 [1.0655] | 2.69^[a] |
| COC(=O)C1(NC(=O)c2sc(Cl)c(C#N)c2Br)CC1 [1.0656] | 2.34^[a] |

Further lines, results first:

| LogP | SMILES |
| --- | --- |
| 3.10^[a] | CCOC(=O)C1(NC(=O)c2sc(Cl)c(Br)c2F)CC1 [1.0636] |
| 3.27^[a] | COC(=O)C(C)(C)NC(=O)c1sc(Cl)c(Br)c1F [1.0637] |
| 4.40^[a] | CCOC(=O)C(NC(=O)c1sc(Cl)c(Br)c1F)C(C)C (stereo not drawn) [1.0639] |
| 3.75^[a] | CCOC(=O)C1(NC(=O)c2sc(Cl)c(Br)c2F)CCC1 [1.0642] |
| 2.36^[a] | N#CCNC(=O)c1sc(Cl)c(Br)c1F [1.0645] |
| 2.56^[a] | COC(=O)CNC(=O)c1sc(Br)c(C(F)F)c1Br [1.0647] |
| 2.70^[a] | COC(=O)C1(NC(=O)c2sc(Br)c(C(F)F)c2Br)CC1 [1.0649] |
| 3.41^[a] | COC(=O)C(NC(=O)c1sc(Cl)c(Br)c1F)C1CC1 (stereo not drawn) [1.0650] |
| 3.78^[a] | Cc1c(C(=O)NC2(C(=O)OC3CCC3)CC2)sc(Br)c1Cl [1.0651] |
| 2.03^[a] | N#CCNC(=O)c1sc(Br)c(C#N)c1Cl [1.0652] |
| 2.58^[a] | CCOC(=O)CNC(=O)c1sc(Cl)c(C#N)c1Br [1.0653] |
| 2.83^[a] | COC(=O)C(C)(C)NC(=O)c1sc(Cl)c(C#N)c1Br [1.0657] |

Same assay, conditions: method marked [a]

| SMILES | LogP |
| --- | --- |
| COC(=O)C(NC(=O)c1sc(Cl)c(C#N)c1Br)C1CC1 (stereo not drawn) [1.0659] | 3.00^[a] |
| CCOC(=O)C(Cc1ccccc1)NC(=O)c1sc(Cl)c(C#N)c1Br (stereo not drawn) [1.0660] | 4.09^[a] |
| COC(=O)C1(NC(=O)c2sc(Cl)c(C#N)c2Br)CCC1 [1.0661] | 2.87^[a] |
| CCOC(=O)C1(NC(=O)c2sc(Cl)c(C#N)c2Br)CCC1 [1.0662] | 3.28^[a] |
| N#CCNC(=O)c1sc(Cl)c(C#N)c1Br [1.0663] | 2.03^[a] |
| COC(=O)CNC(=O)c1sc(C#N)c(Cl)c1Br [1.0665] | 2.25^[a] |
| COC(=O)C1(NC(=O)c2sc(C#N)c(Cl)c2Br)CC1 [1.0667] | 2.42^[a] |
| COC(=O)C(C)(C)NC(=O)c1sc(C#N)c(Cl)c1Br [1.0668] | 2.90^[a] |
| COC(=O)C1(NC(=O)c2sc(Br)c(C#N)c2Cl)CCC1 [1.0674] | 2.89^[a] |
| CCOC(=O)C(Cc1ccccc1)NC(=O)c1sc(Br)c(C#N)c1Cl (stereo not drawn) [1.0675] | 4.06^[a] |
| O=C(CNC(=O)c1sc(Br)c(Br)c1Cl)OC1CCOC1 (stereo not drawn) [1.0677] | 2.84^[a] |
| O=C(CNC(=O)c1sc(Br)c(Br)c1F)OC1CCOC1 (stereo not drawn) [1.0678] | 2.53^[a] |
| COC(=O)C1(NC(=O)c2sc(C#N)c(Br)c2C)CCC1 [1.0680] | 2.71^[a] |
| COC(=O)CNC(=O)c1sc(Cl)c(Cl)c1C#N [1.0681] | 2.17^[a] |
| COC(=O)C1(NC(=O)c2sc(Cl)c(Cl)c2C#N)CC1 [1.0682] | 2.33^[a] |
| CCOC(=O)C1(NC(=O)c2sc(C#N)c(Cl)c2Br)CCC1 [1.0683] | 3.34^[a] |
| CCOC(=O)C(Cc1ccccc1)NC(=O)c1sc(Cl)c(Cl)c1C#N (stereo not drawn) [1.0685] | 3.98^[a] |
| N#CCNC(=O)c1sc(Cl)c(Cl)c1C#N [1.0688] | 2.04^[a] |

| SMILES | LogP |
| --- | --- |
| COC(=O)CNC(=O)c1sc(Br)c(C#N)c1Cl [1.0690] | 2.19^[a] |
| CCOC(=O)C1(NC(=O)c2sc(Br)c(C#N)c2Cl)CC1 [1.0691] | 2.71^[a] |
| COC(=O)C1(NC(=O)c2sc(Br)c(C#N)c2Cl)CC1 [1.0692] | 2.37^[a] |
| COC(=O)C(NC(=O)c1sc(Cl)c(Cl)c1C#N)C1CC1 (stereo not drawn) [1.0695] | 2.89^[a] |
| CCOC(=O)CNC(=O)c1sc(F)c(Br)c1Br [1.0697] | 3.01^[a] |
| CCOC(=O)C(C)(C)NC(=O)c1sc(Cl)c(Br)c1Br [1.0701] | 4.30^[a] |
| O=C(NC1(C(=O)O)CC1)c1sc(Br)c(Cl)c1F [1.0703] | 2.14^[a] |
| CCCOC(=O)C1(NC(=O)c2sc(Br)c(Cl)c2C)CC1 [1.0704] | 3.62^[a] |
| CCOC(=O)C(NC(=O)c1sc(F)c(Br)c1Br)C(C)C (stereo not drawn) [1.0709] | 4.48^[a] |
| CCOC(=O)C(Cc1ccccc1)NC(=O)c1sc(F)c(Br)c1Br (stereo not drawn) [1.0711] | 4.67^[a] |
| CCOC(=O)C1(NC(=O)c2sc(F)c(Br)c2Br)CCC1 [1.0713] | 3.88^[a] |
| N#CCNC(=O)c1sc(F)c(Br)c1Br [1.0714] | 2.39^[a] |
| COC(=O)CNC(=O)c1cc(Br)c(C(F)(F)F)s1 [1.0716] | 2.65^[a] |
| COC(=O)C(C)(C)NC(=O)c1cc(Br)c(C(F)(F)F)s1 [1.0718] | 3.23^[a] |
| CCOC(=O)C(NC(=O)c1cc(Br)c(C(F)(F)F)s1)C(C)C (stereo not drawn) [1.0719] | 4.18^[a] |
| COC(=O)C(NC(=O)c1cc(Br)c(C(F)(F)F)s1)C1CC1 (stereo not drawn) [1.0720] | 3.41^[a] |
| CCOC(=O)C1(NC(=O)c2sc(Cl)c(Cl)c2Br)CSC1 [1.0727] | 3.95^[a] |
| CCOC(=O)C(CO)NC(=O)c1sc(C#N)c(Br)c1Br (stereo not drawn) [1.0731] | 2.62^[a] |

The next lines start with the values.

| LogP | SMILES |
| --- | --- |
| 3.83^[a] | CCOC(=O)C(NC(=O)c1sc(Cl)c(C#N)c1Br)C(C)C (stereo not drawn) [1.0658] |
| 2.64^[a] | CCOC(=O)CNC(=O)c1sc(C#N)c(Cl)c1Br [1.0664] |
| 2.76^[a] | CCOC(=O)C1(NC(=O)c2sc(C#N)c(Cl)c2Br)CC1 [1.0666] |
| 3.90^[a] | CCOC(=O)C(NC(=O)c1sc(C#N)c(Cl)c1Br)C(C)C (stereo not drawn) [1.0669] |
| 3.07^[a] | COC(=O)C(NC(=O)c1sc(C#N)c(Cl)c1Br)C1CC1 (stereo not drawn) [1.0670] |
| 4.14^[a] | CCOC(=O)C(Cc1ccccc1)NC(=O)c1sc(C#N)c(Cl)c1Br (stereo not drawn) [1.0671] |
| 2.96^[a] | COC(=O)C1(NC(=O)c2sc(C#N)c(Cl)c2Br)CCC1 [1.0672] |
| 3.30^[a] | CCOC(=O)C1(NC(=O)c2sc(Br)c(C#N)c2Cl)CCC1 [1.0673] |
| 2.99^[a] | COC(=O)C(NC(=O)c1sc(Br)c(C#N)c1Cl)C1CC1 (stereo not drawn) [1.0676] |
| 2.12^[a] | Cc1c(C(=O)NCC(=O)OC2CCOC2)sc(C#N)c1Br (stereo not drawn) [1.0679] |
| 2.73^[a] | COC(=O)C(C)(C)NC(=O)c1sc(Cl)c(Cl)c1C#N [1.0684] |
| 2.79^[a] | COC(=O)C1(NC(=O)c2sc(Cl)c(Cl)c2C#N)CCC1 [1.0686] |
| 3.16^[a] | CCOC(=O)C1(NC(=O)c2sc(Cl)c(Cl)c2C#N)CCC1 [1.0687] |
| 2.57^[a] | CCOC(=O)CNC(=O)c1sc(Br)c(C#N)c1Cl [1.0689] |
| 2.84^[a] | COC(=O)C(C)(C)NC(=O)c1sc(Br)c(C#N)c1Cl [1.0693] |
| 3.83^[a] | CCOC(=O)C(NC(=O)c1sc(Br)c(C#N)c1Cl)C(C)C (stereo not drawn) [1.0694] |
| 2.60^[a] | COC(=O)CNC(=O)c1sc(F)c(Br)c1Br [1.0698] |
| 2.44^[a] | O=C(NC1(C(=O)O)CC1)c1cc(Br)c(C(F)(F)F)s1 [1.0700] |
| 2.15^[a] | O=C(NC1(C(=O)O)CC1)c1sc(Cl)c(Br)c1F [1.0702] |
| 4.33^[a] | Cc1c(C(=O)NC2(C(=O)OC3CCC3)CCC2)sc(Br)c1Cl [1.0705] |

| LogP | SMILES |
| --- | --- |
| 3.17^[a] | CCOC(=O)C1(NC(=O)c2sc(F)c(Br)c2Br)CC1 [1.0706] |
| 2.76^[a] | COC(=O)C1(NC(=O)c2sc(F)c(Br)c2Br)CC1 [1.0707] |
| 3.38^[a] | COC(=O)C(C)(C)NC(=O)c1sc(F)c(Br)c1Br [1.0708] |
| 3.55^[a] | COC(=O)C(NC(=O)c1sc(F)c(Br)c1Br)C1CC1 (stereo not drawn) [1.0710] |
| 3.41^[a] | COC(=O)C1(NC(=O)c2sc(F)c(Br)c2Br)CCC1 [1.0712] |
| 3.00^[a] | CCOC(=O)CNC(=O)c1cc(Br)c(C(F)(F)F)s1 [1.0715] |
| 2.87^[a] | COC(=O)C1(NC(=O)c2cc(Br)c(C(F)(F)F)s2)CC1 [1.0717] |
| 4.36^[a] | CCOC(=O)C(Cc1ccccc1)NC(=O)c1cc(Br)c(C(F)(F)F)s1 (stereo not drawn) [1.0721] |
| 3.33^[a] | COC(=O)C1(NC(=O)c2cc(Br)c(C(F)(F)F)s2)CCC1 [1.0722] |
| 3.70^[a] | CCOC(=O)C1(NC(=O)c2cc(Br)c(C(F)(F)F)s2)CCC1 [1.0723] |
| 2.61^[a] | N#CCNC(=O)c1cc(Br)c(C(F)(F)F)s1 [1.0724] |
| 4.37^[a] | Cc1c(C(=O)NC2(C(=O)OC3CCC3)CCC2)sc(Cl)c1Br [1.0725] |
| 3.22^[a] | CCOC(=O)C1(NC(=O)c2cc(Br)c(C(F)(F)F)s2)CC1 [1.0726] |
| 3.97^[a] | CCOC(=O)C1(NC(=O)c2sc(Br)c(Br)c2Cl)CSC1 [1.0728] |
| 3.03^[a] | COC(=O)[C@H](CCSC)NC(=O)c1sc(C#N)c(Br)c1C [1.0729] |
| 2.97^[a] | COC(=O)[C@H](CCSC)NC(=O)c1sc(C#N)c(Cl)c1C [1.0730] |
| 3.81^[a] | CCOC(=O)C(CCSC)NC(=O)c1sc(C#N)c(Br)c1Br (stereo not drawn) [1.0732] |
| 3.23^[a] | COC(=O)C(CCSC)NC(=O)c1sc(C#N)c(Br)c1Br (stereo not drawn) [1.0733] |
| 3.40^[a] | COC(=O)[C@H](CCSC)NC(=O)c1sc(C#N)c(Br)c1Br [1.0734] |
